The test system of one data set is Pimephales promelas. Particulars: mortality.
For a further data set, the system named is Tagia sp. Conditions: chronic/long-term; growth.
In another data set the test system is Oryctolagus sp. Conditions: chronic.
Another data set relates to Daphnia magna. Particulars: chronic/long-term; duration: 21 days; mortality.
The subject of a further data set is Elodea callitrichoides. Conditions: chronic/long-term; duration: 42 days.
The test system of a further data set is Apis mellifera. Conditions: acute, mortality.
A further data set has as its system Hypoaspis aculeifer. Conditions: chronic/long-term; mortality.
For a further data set, the system named is Rattus norvegicus. Conditions: acute; oral; mortality.

In brackets after ≈: the same amount, converted by molar mass. Where only a bound is given, the exact number is not on record here.

As usually defined, the LC50 is the concentration lethal to half of the exposed cells or organisms. The term NOAEL denotes the highest tested level that showed no adverse finding. In turn, `CNC1=C(c2cccc(C(F)(F)F)c2)C(=O)C(c2ccccc2)O1` (configuration not stated) [Flurtamone] yielded an LC50 in the data set on Pimephales promelas (acute, duration: 96 hours) of 6.64 µg/mL (≈ 19.9 µM). In addition, the NOEC turned out to be 0.188 mg/L in the data set on Pimephales promelas (chronic/long-term, duration: 35 days); 47.5 mg/kg in the data set on Tagia sp.; 0.071 mg/L in the data set on Daphnia magna; 7.3 mg/kg-day in the data set with Colinus virginianus (chronic); 0.001 mg/L in the data set with Elodea callitrichoides; 89 mg/kg in the data set on Hypoaspis aculeifer. In addition, in the data set on Oryctolagus sp., the NOAEL stood at 20 mg/kg-day. The LD50 was greater than 2530 mg/kg in the data set with Colinus virginianus (acute, oral, mortality); greater than 100 µg/piece in the data set with Apis mellifera (dermal); greater than 105 µg/piece in the data set on Apis mellifera (oral, unspecified); greater than 5000 mg/kg in the data set on Rattus norvegicus.
